Measurements published in PubChem BioAssay AID1645866 (Buhrlage Lab, Dana-Farber Cancer Institute and Novartis …, 2021).
Activity calls are given as the source filed them.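 The calls were made as follows: active = in confirmatory dose-response testing, peak deubiquitinase inhibition of 30% or more; inactive = the rest.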

molecular target: Ubiquitin carboxyl-terminal hydrolase 28 (Homo sapiens) (UniProt Q96RU2); test: Concentration-response biochemical assay confirming initial hits as inhibitors of ubiquitin-specific protease 28 (AID 1645866); conditions: purified USP28, ubiquitin-rhodamine fluorescence, 30 min
Sequence (Q96RU2 whole entry, looked up): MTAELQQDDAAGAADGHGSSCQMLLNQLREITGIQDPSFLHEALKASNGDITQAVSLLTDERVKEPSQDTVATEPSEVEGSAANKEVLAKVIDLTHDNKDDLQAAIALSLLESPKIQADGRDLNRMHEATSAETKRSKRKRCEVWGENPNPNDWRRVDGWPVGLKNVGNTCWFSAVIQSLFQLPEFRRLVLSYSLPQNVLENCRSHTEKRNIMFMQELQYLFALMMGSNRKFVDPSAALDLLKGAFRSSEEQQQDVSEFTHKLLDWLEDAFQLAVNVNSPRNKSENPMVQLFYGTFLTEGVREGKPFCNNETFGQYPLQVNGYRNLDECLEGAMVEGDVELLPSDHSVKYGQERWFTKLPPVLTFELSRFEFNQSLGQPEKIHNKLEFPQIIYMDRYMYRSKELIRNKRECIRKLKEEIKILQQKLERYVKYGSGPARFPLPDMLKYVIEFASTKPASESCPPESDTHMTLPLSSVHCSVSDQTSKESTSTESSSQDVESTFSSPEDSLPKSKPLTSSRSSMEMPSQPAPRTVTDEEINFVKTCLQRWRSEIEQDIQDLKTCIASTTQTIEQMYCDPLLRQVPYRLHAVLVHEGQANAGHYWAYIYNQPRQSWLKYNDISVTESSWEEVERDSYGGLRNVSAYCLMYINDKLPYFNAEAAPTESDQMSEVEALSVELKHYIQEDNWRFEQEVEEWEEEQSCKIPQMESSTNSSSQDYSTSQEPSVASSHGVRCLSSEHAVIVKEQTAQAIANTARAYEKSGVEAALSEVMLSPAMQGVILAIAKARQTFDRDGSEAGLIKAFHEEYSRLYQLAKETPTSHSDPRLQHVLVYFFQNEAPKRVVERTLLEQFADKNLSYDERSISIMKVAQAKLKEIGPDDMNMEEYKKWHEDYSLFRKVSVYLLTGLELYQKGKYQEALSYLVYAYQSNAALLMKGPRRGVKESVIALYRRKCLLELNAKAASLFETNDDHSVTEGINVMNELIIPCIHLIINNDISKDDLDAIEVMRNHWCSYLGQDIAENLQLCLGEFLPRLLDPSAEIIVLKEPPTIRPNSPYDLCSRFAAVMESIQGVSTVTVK

SMILES	IC50
COc1ccc(CNC(=O)C(C)n2nc(-c3ccco3)c(-c3cc(C)no3)cc2=O)cc1 (stereo not given)	26.4 µM
CC(Sc1n[nH]c2nc3ccccc3n12)C(=O)Nc1ccc2c(c1)OCCO2 (stereo not given)	37.5 µM
O=C(COc1cc([N+](=O)[O-])cc2cccnc12)NCCC1=CCCCC1	28.6 µM
O=C(Cn1cnc2c(oc3ccccc32)c1=O)NCc1ccccc1Cl	22.2 µM
Cc1ccc(S(=O)(=O)c2cnc(SCC(=O)Nc3ccc(Cl)cc3)nc2N)cc1C	39.5 µM
O=C(COC(=O)c1n[nH]c2ccccc12)Nc1ccc(N2CCCCC2)cc1	25.9 µM
COc1ccc(-c2cc(C(C)=O)c(C)n2CCC(=O)Nc2ccc(OC)cc2OC)cc1	43.1 µM
CCOC(=O)c1cc2c(ccn2C)n1CC(=O)N1CCc2ccccc2C1	> 50 µM (inactive)
c1coc(CNc2nc3ccccc3n3nnnc23)c1	> 50 µM (inactive)
CC1=C(C(=O)Nc2ccccc2C)C(c2ccc(OCc3ccccc3F)cc2)n2ncnc2N1 (stereo not given)	21.6 µM
NC(=O)Cn1c(=O)n(Cc2ccc(C(=O)NC3CCCC3)cc2)c(=O)c2ccccc21	> 50 µM (inactive)
CN(C)S(=O)(=O)c1ccc(C(=O)Nc2c(C#N)oc3ccccc23)cc1	> 50 µM (inactive)
COc1ccc(OC)c2c(C)cc(N3CCN(S(=O)(=O)c4ccc5c(c4)CCCN5S(C)(=O)=O)CC3)nc12	17.9 µM
Cc1ccc(OCC(=O)Nc2cccc(-c3nc4ncccc4o3)c2)c(C)c1	38.5 µM
Cc1cc(C(=O)N2CCOC3(CC=CCN(CCc4ccccc4)C3=O)C2)n2nccc2n1 (stereo not given)	> 50 µM (inactive)
Cc1ccccc1C(=O)OCCN1C(=O)c2cccc3c(N4CCOCC4)ccc(c23)C1=O	> 50 µM (inactive)
CO/C=C/C(=O)c1cc2cnc3c(=N)cc(NC(C)=O)c([nH]1)c23	> 50 µM (inactive)
CC1CCN(S(=O)(=O)c2ccc3[nH]cc(C(=O)NCc4ccco4)c(=O)c3c2)CC1	> 50 µM (inactive)
Cc1cccc(NC(=O)c2nc(N3CCSCC3)c3cnn(C)c3n2)c1	> 50 µM (inactive)
CCOc1ccccc1NC(=O)COC(=O)C(c1ccccc1)c1ccccc1	> 50 µM (inactive)

SMILES	IC50
COCCNC(=O)c1ccn(-c2ccc3ccc(-c4cnn(C)c4)cn23)n1	> 50 µM (inactive)
Cc1nc(-c2ccc3c(c2)nnn3CCN2CCOCC2)no1	> 50 µM (inactive)
COc1ccc(CNC(=O)CN2C(=O)C(C)=C(c3ccc(C)cc3)S2(=O)=O)cc1	> 50 µM (inactive)
O=C(c1cc(-c2ccc(Cl)cc2)n[nH]1)N1CCN(C(=O)c2ccco2)CC1	25.8 µM
COc1cccc2sc(N3CCN(c4nc5ccccc5s4)CC3)nc12	> 50 µM (inactive)
O=C(c1ccsc1)N1CCC2(C1)Nc1cccnc1NC2=NC1CCCC1 (stereo not given)	> 50 µM (inactive)
Cc1ccc(NC(=O)Cn2c(Nc3cccc(C)c3)nc(C)cc2=O)cc1	25.4 µM
COc1ccccc1NC(=O)CSC1=NC2(CCCCC2)Nc2ccccc21	> 50 µM (inactive)
NS(=O)(=O)c1ccc(NC(=O)Cn2cnc3cc([N+](=O)[O-])ccc3c2=O)cc1	19.9 µM
O=C(NC1CCCC1)C1CC(=O)N(c2cccc(-c3noc(-c4cccs4)n3)c2)C1 (stereo not given)	35.9 µM
COc1ccc(NC(=O)C2[C@@H]3C(=O)N(C4CCCCC4)C(=O)[C@@H]3[C@H]3c4ccccc4C=CN23)cc1 (stereo not given in full)	36.9 µM
COc1cccc(CC(=O)Nc2cc(F)c3nc(N4CCOCC4)ccc3c2)c1	> 50 µM (inactive)
Cc1ccccc1NC(=O)Cn1cc(-c2nc(C3CC3)no2)ccc1=O	> 50 µM (inactive)
Cc1ccc2c(c1)-c1c(c(C(=O)N3CCN(c4ccccc4)CC3)nn1C)CS2	> 50 µM (inactive)
C=C[C@]1(C)C=C2C(=O)[C@]3(O)OC(=O)[C@@]4(CCCC(C)(C)[C@H]34)[C@@]2(O)CC1	27.6 µM
CCN1C[C@@H]2C[C@]2(c2ccccc2OC)C(=O)c2ncccc21	> 50 µM (inactive)
O=C(NCc1ccc(-c2nc3cnccc3o2)cc1)c1ccccc1Br	> 50 µM (inactive)
O=C(O)c1nccnc1C(=O)N1CCc2ccccc2C1	> 50 µM (inactive)
O=S(=O)(O)c1cc2cc3ccccc3cc2[nH]1	> 50 µM (inactive)
CCCC(=O)Nc1nc2ccc(CCC(=O)NCc3ccc(F)cc3)cc2s1	25.8 µM

SMILES	IC50
Cc1ccc(-c2nc(-c3ccccc3)c(S(=O)(=O)CC(=O)Nc3ccc(C)c(C)c3)[nH]2)cc1	42.3 µM
CCCCc1nc2sc3c(SCC(=O)NCc4ccccc4)ncnc3c2c2c1CCC2	39 µM
O=C(NCC1CC1)C1CCCN(c2ccc(-c3ccccc3)nn2)C1 (stereo not given)	> 50 µM (inactive)
O=C(O)COc1ccccc1/C=C1\CCc2c1nc1ccccc1c2C(=O)O	> 50 µM (inactive)
COc1cccc2c1OCC(C(=O)NCc1ccc(F)cc1)=C2	21.6 µM
Cc1noc(NS(=O)(=O)c2ccc(NC(=O)CSc3ccc4ccccc4c3)cc2)c1C	> 50 µM (inactive)
Cc1ccccc1C(=O)Nc1ccc(Cc2ccc(NC(=O)c3ccccc3C)c(O)c2)cc1O	43.7 µM
CCn1cc(-c2cc(C(=O)Nc3cnn(Cc4cccc(F)c4)c3)c3ccccc3n2)cn1	42.1 µM
CNC(=O)C1CN(C(=O)c2ccc(OC)cc2)CC12CCCC2 (stereo not given)	> 50 µM (inactive)
CC(=O)Nc1ccc(-n2cnc(C(=O)NC(C)c3ccccc3)c2)nc1 (stereo not given)	20.5 µM
CC1(C)CC2CC(C)(CN2Cc2c(O)ccc3ccccc23)C1 (stereo not given)	> 50 µM (inactive)
Cn1c(=O)cc(SCC(=O)NC2CCN(Cc3ccccc3)CC2)c2ccc(Cl)cc21	31.6 µM
Cc1ccc(Nc2nc(C(=O)NCc3ccc4c(c3)OCO4)cc3occc23)cc1Cl	19 µM
COc1ccc(CNC(=O)c2ccccc2N2C(=O)N3CCc4c([nH]c5ccccc45)[C@@]3(C)C2=O)cc1	37.4 µM
CSc1nccc(-c2ccc(F)cc2)c1C#N	46.2 µM
COC1C(O)=C2C(=O)O/C(C)=C/C=C/C=C/C=C/CC(c3ccccc3)NC(=O)/C=C/C=C/C=C\C=C\C2(C)C1O (stereo not given)	> 50 µM (inactive)
COc1ccc(C2CC(c3ccc(C)cc3)N(C(=O)C3CC3)c3ncnn32)cc1 (stereo not given)	> 50 µM (inactive)
CCCC(=O)c1c[nH]c(C(=O)NCc2ccc(F)cc2)c1	18.7 µM

Results, then the molecule that gave them:

IC50	SMILES
2.18 µM	CCCCCCCc1cc(O)cc(OC(=O)c2c(CCCCCCC)cc(O)cc2O[C@H]2O[C@H](C(O)CO)[C@@H](O)[C@@H]2O)c1 (stereo not given in full)
2.01 µM	COc1ccc(Nc2nc3c(S(=O)(=O)c4ccc(C)cc4)nnn3c3ccsc23)c(OC)c1
17.1 µM	COc1ccc(C(C(=O)NC2CCCCC2)N(C(=O)CCCC(=O)Nc2ccccn2)c2ccccc2C)cc1 (stereo not given)
15.5 µM	COc1ccc(-c2nc(SCC(=O)Nc3ccc(C(C)=O)cc3)n[nH]2)cc1
11.9 µM	O=C(Nc1ccc(Cl)cc1)Nc1cccn2ncnc12
17.2 µM	N#Cc1cn(CC(=O)N2CCc3ccccc32)c2ccccc12
5.81 µM	CCOc1ccc2[nH]c3c(=O)n(CCc4ccc(OC)cc4)cnc3c2c1
0.374 µM	c1ccc2c(Cc3nc(-c4ccncc4)no3)cccc2c1
12.9 µM	Cn1ncc2c(=O)n(Cc3cccc(Cl)c3)cnc21
11 µM	CCn1cc2c(n1)c(=O)n(Cc1ccc(C)cc1)c(=O)n2CC(=O)Nc1ccc(F)cc1
1.25 µM	CN1C(=O)c2cc(NC(=O)c3ccccc3Cl)ccc2Oc2ccccc21
0.641 µM	Cc1ccc(-n2c(-c3ccccc3)cn3c4c(=O)[nH]c(=O)n(C)c4nc23)cc1C
4.68 µM	O=C(Nc1cccc(Cl)c1)N1CCC(c2cc(-c3ccco3)n[nH]2)CC1
2.36 µM	Cc1cc(NC(=O)Cn2c(=O)n(CCCCC(=O)NCc3ccco3)c(=O)c3ccccc32)ccc1Br
2.58 µM	Cc1ccc(CNC(=O)Cn2cnc3c(cnn3-c3cccc(Cl)c3)c2=O)cc1
4.07 µM	CC(=O)c1ccc(NC(=O)CSc2nc(-c3ccccc3)nc3c2COC(C)(C)C3)cc1
0.14 µM	COc1cccc(C(=O)Oc2ccc3c(=O)c(-c4ccc(OC)c(OC)c4)coc3c2)c1
7 µM	Cc1cccc(NC(=O)Cn2c(=O)n(Cc3ccc(F)cc3)c(=O)c3sccc32)c1
1.94 µM	O=C(CCCn1c(=O)c2ccccc2n(CC(=O)NCc2ccccc2Cl)c1=O)NCc1ccc2c(c1)OCO2
15.5 µM	CCn1c(Cn2cccn2)nc2cc(NC(=O)c3ccc(F)cc3)ccc21
0.946 µM	Cc1ccccc1Cc1nc(-c2ccc(=O)[nH]c2)no1

IC50	SMILES
9.78 µM	O=C(c1ccco1)N1CCN=C1SCc1ccccc1F
0.235 µM	N#Cc1ccc(NC(=O)Nc2cccn(Cc3ccccc3F)c2=O)cc1
< 0.05 µM	CCCc1nc2sc3c(NC4CCCCC4)ncnc3c2c2c1CCC2
14.3 µM	CC(CCc1ccccc1)NC(=O)Cn1c(=O)c2cccn2c2ccccc21 (stereo not given)
2.11 µM	COc1ccc2ncc3c(-c4ccc(C)cc4)nn(-c4ccc(F)cc4)c3c2c1
1.97 µM	O=C(Nc1ccc(-c2cn3ccccc3n2)cc1)C1C=C2C=C(Br)C=CC2OC1=O (stereo not given)
2.55 µM	O=C(OCc1ccc(F)cc1)c1ccc2ccccc2n1
0.423 µM	Cc1ccc(Cc2nc(-c3ccc(=O)[nH]c3)no2)cc1
3.78 µM	CC(c1ccccc1)c1nc(-c2ccc(=O)[nH]c2)no1 (stereo not given)
13.6 µM	Clc1ccc(C[n+]2cc(-c3ccc(Cl)cc3)n3c2CCC3)cc1
2.49 µM	Cc1c(-c2nn3c(-c4ccco4)nnc3s2)cccc1[N+](=O)[O-]
3.65 µM	CCCCn1c(=O)c(CCC(=O)OCC(=O)Nc2ccc3c(c2)OCCO3)nc2ccccc21
5.8 µM	CSc1cccc(C(=O)Nc2ccc(-c3nc4ccccc4[nH]3)cc2)c1
2.57 µM	CSc1cccc(NC(=O)COc2cccc3ccccc23)c1
1.23 µM	Cn1c2ccccc2c(=O)c2c(=O)n(Cc3ccccc3)c(-c3ccco3)nc21
7.75 µM	Cc1ccccc1NC(=O)C(C)n1c(=O)cc(-c2ccccc2)c2c(C)nn(C)c21 (stereo not given)
2.67 µM	COc1ccc(NC(=O)Cn2cc(C(=O)c3ccc(C)cc3)c(=O)c3ccccc32)cc1
4.61 µM	COc1ccc(OC)c(NC(=O)Cn2c(=O)n(CC3CCC(C(=O)NCCc4ccccc4)CC3)c(=O)c3ccccc32)c1 (stereo not given)
4.78 µM	COc1ccc(NC(=O)c2nnn(-c3ccccc3C)c2C)cc1OC
2.56 µM	CCCC[C@@H](C)/C=C(C)/C=C(\C)C(=O)NC1=C[C@](O)(/C=C/C=C/C=C/C(=O)NC2=C(O)CCC2=O)[C@@H]2O[C@@H]2C1=O
0.549 µM	CCCCc1nc2sc3c(NCCN4CCOCC4)ncnc3c2c2c1CCC2
